Counter-ions that a name gives are not always drawn.
Key:
human SLC22A10 (541 aa) = biological target: T1, human SLC22A10 (541 aa) (Homo sapiens, UniProt Q63ZE4, P220L); test: radiolabelled uptake in transiently transfected HEK293 Flp-In cells; format: cell-based; details: labelled compound; HBSS
T1 construct: full length 541 aa, pcDNA3.1(+) or N-terminal eGFP fusion, transient HEK293 Flp-In cells
T1 sequence (Q63ZE4 1-541 P220L): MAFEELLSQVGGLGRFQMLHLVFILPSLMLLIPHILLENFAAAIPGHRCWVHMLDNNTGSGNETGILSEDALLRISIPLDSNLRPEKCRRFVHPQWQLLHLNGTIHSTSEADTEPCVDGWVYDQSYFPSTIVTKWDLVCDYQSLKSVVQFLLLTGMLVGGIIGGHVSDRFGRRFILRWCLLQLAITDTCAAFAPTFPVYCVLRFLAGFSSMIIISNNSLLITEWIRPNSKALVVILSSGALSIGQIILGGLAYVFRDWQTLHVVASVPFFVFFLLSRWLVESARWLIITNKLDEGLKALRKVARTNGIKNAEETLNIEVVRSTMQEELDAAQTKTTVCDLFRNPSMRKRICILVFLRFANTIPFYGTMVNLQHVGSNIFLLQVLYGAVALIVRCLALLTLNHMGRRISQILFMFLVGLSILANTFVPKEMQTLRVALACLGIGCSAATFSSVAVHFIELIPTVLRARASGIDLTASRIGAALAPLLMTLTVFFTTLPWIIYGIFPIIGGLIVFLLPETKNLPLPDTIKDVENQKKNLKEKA

gibbon SLC22A10 (533 aa) = biological target: T2, gibbon SLC22A10 (533 aa) (Nomascus leucogenys, UniProt G1QWU8); test: radiolabelled uptake in HEK293 Flp-In cells; format: cell-based; details: labelled compound; HBSS
T2 construct: gene LOC100590002; full length 533 aa isoform, synthetic cDNA, HEK293 Flp-In cells
T2 sequence (G1QWU8 1-533): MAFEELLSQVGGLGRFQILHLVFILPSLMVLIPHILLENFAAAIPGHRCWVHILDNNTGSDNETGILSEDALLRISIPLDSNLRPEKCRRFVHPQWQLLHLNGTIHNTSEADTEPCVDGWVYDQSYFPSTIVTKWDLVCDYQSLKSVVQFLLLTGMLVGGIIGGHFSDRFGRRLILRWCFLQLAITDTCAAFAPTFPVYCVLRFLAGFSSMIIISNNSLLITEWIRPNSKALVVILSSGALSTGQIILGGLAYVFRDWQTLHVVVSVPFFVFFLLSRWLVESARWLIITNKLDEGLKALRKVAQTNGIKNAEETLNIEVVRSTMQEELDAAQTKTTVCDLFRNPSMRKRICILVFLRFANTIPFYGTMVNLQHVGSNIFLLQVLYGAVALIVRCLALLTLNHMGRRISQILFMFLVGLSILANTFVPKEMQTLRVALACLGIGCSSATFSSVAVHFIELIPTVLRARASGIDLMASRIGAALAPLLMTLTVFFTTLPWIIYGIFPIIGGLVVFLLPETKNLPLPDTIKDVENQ

[1] = biological target: T3, gorilla SLC22A10 (552 aa) (Gorilla gorilla, UniProt G3RG24); test: radiolabelled uptake in HEK293 Flp-In cells; format: cell-based; details: labelled compound; HBSS
T3 construct: full length 552 aa, synthetic cDNA, HEK293 Flp-In cells
T3 sequence (G3RG24 entry or part of it): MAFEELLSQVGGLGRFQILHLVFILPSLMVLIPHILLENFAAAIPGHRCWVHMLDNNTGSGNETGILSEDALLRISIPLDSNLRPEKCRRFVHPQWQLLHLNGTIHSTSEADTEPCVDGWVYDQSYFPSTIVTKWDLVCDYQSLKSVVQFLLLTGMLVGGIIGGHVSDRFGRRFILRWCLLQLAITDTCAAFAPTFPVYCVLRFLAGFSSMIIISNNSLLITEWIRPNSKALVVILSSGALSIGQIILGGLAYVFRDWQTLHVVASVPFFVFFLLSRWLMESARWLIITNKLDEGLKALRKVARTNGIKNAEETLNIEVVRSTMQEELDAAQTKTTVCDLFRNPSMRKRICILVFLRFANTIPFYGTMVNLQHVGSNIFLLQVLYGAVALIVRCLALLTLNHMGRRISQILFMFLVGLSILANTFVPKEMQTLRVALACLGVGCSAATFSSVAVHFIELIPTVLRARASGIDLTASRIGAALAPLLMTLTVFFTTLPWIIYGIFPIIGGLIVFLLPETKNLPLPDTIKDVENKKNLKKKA

[2] = biological target: T4, chimpanzee SLC22A10 (533 aa) (Pan troglodytes, UniProt A0A2I3TWY5); test: radiolabelled uptake in stable HEK293 Flp-In cells, Michaelis-Menten fit; format: cell-based; details: 37 °C, 5 min uptake, HBSS; empty-vector uptake subtracted; labelled compound
T4 sequence (A0A2I3TWY5 1-540): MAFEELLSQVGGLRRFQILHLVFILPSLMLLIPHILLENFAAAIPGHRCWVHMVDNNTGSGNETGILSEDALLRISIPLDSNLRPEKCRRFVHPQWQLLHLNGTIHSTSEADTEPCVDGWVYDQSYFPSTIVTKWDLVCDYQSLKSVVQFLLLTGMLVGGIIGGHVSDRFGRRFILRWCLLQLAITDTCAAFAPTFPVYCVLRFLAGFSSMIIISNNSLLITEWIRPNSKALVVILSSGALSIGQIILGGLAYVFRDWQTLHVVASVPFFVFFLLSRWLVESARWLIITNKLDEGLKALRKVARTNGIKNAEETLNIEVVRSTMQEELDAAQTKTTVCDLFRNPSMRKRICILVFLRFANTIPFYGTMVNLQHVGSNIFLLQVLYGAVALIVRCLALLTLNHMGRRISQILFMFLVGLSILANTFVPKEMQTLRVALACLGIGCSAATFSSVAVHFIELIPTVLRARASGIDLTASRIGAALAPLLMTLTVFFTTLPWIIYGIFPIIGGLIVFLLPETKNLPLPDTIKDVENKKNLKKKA

[3] = biological target: T5, orangutan SLC22A10 (533 aa) (Pongo abelii, UniProt A0A8I5UWR8); test: radiolabelled uptake in HEK293 Flp-In cells; format: cell-based; details: labelled compound; HBSS
T5 construct: full length 533 aa isoform, synthetic cDNA, HEK293 Flp-In cells
T5 sequence (A0A8I5UWR8 1-533): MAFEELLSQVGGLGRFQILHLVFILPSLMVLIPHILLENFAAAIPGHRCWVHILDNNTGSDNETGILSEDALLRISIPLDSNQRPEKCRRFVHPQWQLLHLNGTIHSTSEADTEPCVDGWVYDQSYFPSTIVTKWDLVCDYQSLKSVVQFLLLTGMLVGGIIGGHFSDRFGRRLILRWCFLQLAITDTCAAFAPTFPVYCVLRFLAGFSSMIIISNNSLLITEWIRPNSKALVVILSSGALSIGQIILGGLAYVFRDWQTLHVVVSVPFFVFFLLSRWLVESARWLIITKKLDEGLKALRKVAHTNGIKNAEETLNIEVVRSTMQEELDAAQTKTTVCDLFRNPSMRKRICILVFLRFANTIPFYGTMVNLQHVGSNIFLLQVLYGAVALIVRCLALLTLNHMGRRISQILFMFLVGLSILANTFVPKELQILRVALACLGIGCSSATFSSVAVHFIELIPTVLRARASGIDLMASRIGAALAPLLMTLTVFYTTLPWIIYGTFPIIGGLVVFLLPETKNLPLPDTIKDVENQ

[4] = biological target: T6, squirrel monkey SLC22A10 (552 aa) (Saimiri boliviensis, UniProt A0A2K6SBP5); test: radiolabelled uptake in HEK293 Flp-In cells; format: cell-based; details: labelled compound; HBSS
T6 construct: full length 552 aa, synthetic cDNA, HEK293 Flp-In cells
T6 sequence (A0A2K6SBP5 1-552): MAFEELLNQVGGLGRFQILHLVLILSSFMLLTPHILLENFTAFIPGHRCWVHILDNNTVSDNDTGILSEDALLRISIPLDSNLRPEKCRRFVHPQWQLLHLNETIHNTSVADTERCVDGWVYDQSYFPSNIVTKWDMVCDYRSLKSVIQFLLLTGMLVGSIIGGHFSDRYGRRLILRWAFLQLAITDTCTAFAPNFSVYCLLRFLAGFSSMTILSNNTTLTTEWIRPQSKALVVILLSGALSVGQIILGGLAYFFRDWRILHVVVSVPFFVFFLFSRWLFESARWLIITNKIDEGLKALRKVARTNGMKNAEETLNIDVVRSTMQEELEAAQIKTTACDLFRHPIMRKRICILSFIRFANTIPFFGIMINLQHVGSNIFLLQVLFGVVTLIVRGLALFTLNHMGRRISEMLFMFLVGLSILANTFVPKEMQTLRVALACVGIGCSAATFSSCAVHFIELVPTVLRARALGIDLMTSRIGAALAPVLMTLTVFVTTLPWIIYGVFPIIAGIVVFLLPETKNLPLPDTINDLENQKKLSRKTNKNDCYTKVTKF

[5] = substrate: C[C@]12CC[C@@H]3c4ccc(O)cc4CC[C@H]3[C@@H]1CC[C@@H]2O[C@@H]1O[C@H](C(=O)O)[C@@H](O)[C@H](O)[C@H]1O; test: radiolabelled uptake in stable HEK293 Flp-In cells, Michaelis-Menten fit; format: cell-based, Pan troglodytes; details: 37 °C, 5 min uptake, HBSS, empty-vector uptake subtracted, labelled compound

C[C@]12CC[C@@H]3c4ccc(O)cc4CC[C@H]3[C@@H]1CC[C@@H]2O[C@@H]1O[C@H](C(=O)O)[C@@H](O)[C@H](O)[C@H]1O [estradiol-17β-glucuronide]
fold uptake (human SLC22A10 (541 aa)): resulting in substantial accumulation of the substrate, estradiol-17β-glucuronide | fold uptake (gibbon SLC22A10 (533 aa)): from chimpanzee, orangutan and gibbon accumulated [^3H]-estradiol-17β-glucuronide and [^3H]-folic acid | fold uptake [1]: Significant accumulation of [^3H]-estradiol-17β-glucuronide and [^3H]-androstanediol-3α-glucuronide were observed in cells expressing | Km [2]: 3.28 ± 2.25 µM | fold uptake [3]: from chimpanzee, orangutan and gibbon accumulated [^3H]-estradiol-17β-glucuronide and [^3H]-folic acid

C[C@]12CC[C@@H]3c4ccc(OS(=O)(=O)O)cc4CC[C@H]3[C@@H]1CCC2=O [estrone sulfate]
uptake [4]: squirrel monkey, a New World monkey, preferred estrone sulfate over estradiol-17β- glucuronide

Nc1nc2ncc(CNc3ccc(C(=O)N[C@@H](CCC(=O)O)C(=O)O)cc3)nc2c(=O)[nH]1 [folic acid]
fold uptake (gibbon SLC22A10 (533 aa)): from chimpanzee, orangutan and gibbon accumulated [^3H]-estradiol-17β-glucuronide and [^3H]-folic acid | fold uptake [3]: from chimpanzee, orangutan and gibbon accumulated [^3H]-estradiol-17β-glucuronide and [^3H]-folic acid

B1: chimpanzee SLC22A10 (552 aa) (Pan troglodytes) (protein)
chain: MAFEELLSQVGGLRRFQILHLVFILPSLMLLIPHILLENFAAAIPGHRCWVHMVDNNTGSGNETGILSEDALLRISIPLDSNLRPEKCRRFVHPQWQLLHLNGTIHSTSEADTEPCVDGWVYDQSYFPSTIVTKWDLVCDYQSLKSVVQFLLLTGMLVGGIIGGHVSDRFGRRFILRWCLLQLAITDTCAAFAPTFPVYCVLRFLAGFSSMIIISNNSLLITEWIRPNSKALVVILSSGALSIGQIILGGLAYVFRDWQTLHVVASVPFFVFFLLSRWLVESARWLIITNKLDEGLKALRKVARTNGIKNAEETLNIEVVRSTMQEELDAAQTKTTVCDLFRNPSMRKRICILVFLRFANTIPFYGTMVNLQHVGSNIFLLQVLYGAVALIVRCLALLTLNHMGRRISQILFMFLVGLSILANTFVPKEMQTLRVALACLGIGCSAATFSSVAVHFIELIPTVLRARASGIDLTASRIGAALAPLLMTLTVFFTTLPWIIYGIFPIIGGLIVFLLPETKNLPLPDTIKDVENQKKISRKRHKNDCYTKVTKF
Km [5]: 2.16 ± 0.59 µM
